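In this assay, cells in 96-well plates receive the compound at five concentrations for 48 hours. Endpoints are linearly interpolated between the surrounding concentrations. At the GI50, growth is halved. TGI denotes the concentration required for complete inhibition of growth.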

Assay in all cases: NCI anticancer screen, dose series, 48 h
Test [1] relates to 786-0 renal.
Test [2] deals with HL-60(TB) leukemia.
Test [3] has as its system HOP-92 NSCLC.
Test [4] concerns HT29 colon.
Test [5] relates to OVCAR-3 ovarian.
Test [6] relates to PC-3 prostate.
Test [7] concerns SF-539 CNS.
For test [8], the system named is SK-MEL-2 melanoma.
Test [9] relates to SK-OV-3 ovarian.
Test [10] has as its system SNB-75 CNS.

For `C=C1C[C@@H]2C/C=C/C(=O)C/C(C)=C\C=C\C(=O)O[C@H](C=O)C/C(C)=C/[C@H](C1)O2`, the GI50 in test [1] was 0.783 µM; in test [2], 0.243 µM; in test [3] it was 0.367 µM; in test [4], 0.281 µM; in test [5], 0.557 µM; in test [6], 0.354 µM. For the same molecule, the GI50 in [7] was 0.328 µM; in test [8] it was 6.1 µM; in test [9], 5.36 µM; in test [10] it was 0.294 µM. For the same molecule, the TGI in [1] was 18.3 µM; in test [2], 0.781 µM; in [3], 2.34 µM; in test [4], 12.6 µM; in [5] it was 24.4 µM; in test [6] it was 21.4 µM. Besides, the TGI is 1.64 µM in test [7], 34.9 µM in [8], more than 100 µM in test [9] and 1.96 µM in [10].
As for `CCN1C(=O)N(CC)C2C1NN=c1s/c(=C3\C(=O)N(CC(C)C)c4ccccc43)c(=O)n12` (stereo not given), the GI50 is 1.02 µM in [1]; 0.34 µM in [2]; 4.04 µM in test [3]; 0.396 µM in [4]; 0.284 µM in test [5]; 0.514 µM in test [6]. Also, the GI50 in [7] is 0.327 µM; in test [8], 2.98 µM; in test [9], 0.493 µM; in [10], 0.268 µM. The TGI was 26.7 µM in test [1]; 1.64 µM in test [2]; more than 64.1 µM in [3]; more than 100 µM in test [4]; 0.799 µM in test [5]; more than 100 µM in test [6]. The TGI was found to be 1.66 µM in test [7], 27.8 µM in [8], 39.8 µM in test [9] and 3.82 µM in test [10].
`CN(C)CCCN=C(N)N`: the TGI in [1], in [2], in test [3], in [4], in test [5] and in test [6] was more than 100 µM in each case. Moreover, the TGI in test [7], in test [8], in test [9] and in [10] was more than 100 µM each time.
On to `N#CC1=C(N)OC2=C(COc3ccc(F)cc32)C1c1ccc(Cl)cc1` (stereo not given), for which the GI50 in test [1] is 32.3 µM; in [2] it was 33.5 µM; in test [3], 30.5 µM; in [4], 50.4 µM; in test [5], 17.2 µM; in test [6], 32.3 µM. Besides, the GI50 in test [7] is 29.5 µM; in [8] it was 35.1 µM; in [9], 53.1 µM; in test [10] it was more than 100 µM. Besides, the TGI was more than 100 µM in test [1]; 86 µM in [2]; more than 100 µM in test [3]; more than 100 µM in test [4]; 42.3 µM in [5]; more than 100 µM in test [6]. Also, the TGI in test [7] is 81.6 µM; in [8] it was more than 100 µM; in test [9], more than 100 µM; in test [10], more than 100 µM.
For the molecule `N#Cc1ccccc1NC(=O)/C(=N\NC(=O)c1ccncc1)C(c1cnc2ccc([N+](=O)[O-])cc2n1)[N+](=O)[O-]` (stereo not given), the TGI in [1], in [2], in [3], in test [4], in [5] and in test [6] was more than 100 µM throughout. In addition, the TGI in [7], in [8], in test [9] and in test [10] was more than 100 µM in each case.
On to `O=C1CCCCCCCC/C=C/CCC(c2ccco2)O1` (stereo not given), for which the GI50 in test [1] was 45.9 µM; in test [2], 14.5 µM; in [3], 50.5 µM; in test [4], 44.1 µM; in test [5] it was 39.4 µM; in test [6], 77.8 µM. In addition, the GI50 was 60.5 µM in test [7], more than 100 µM in [8], more than 100 µM in [9] and 23.7 µM in [10]. The TGI is more than 100 µM in test [1]; 38.7 µM in [2]; more than 100 µM in test [3]; more than 100 µM in test [4]; more than 100 µM in [5]; more than 100 µM in test [6]. Further, the TGI is more than 100 µM in test [7], more than 100 µM in test [8], more than 100 µM in [9] and 92 µM in [10].
With `N#CC1=C(N)NC(=S)NC12Nc1ccccc1O2` (stereo not given), the GI50 in [1] was 30.1 µM; in [2], 17.2 µM; in test [3] it was more than 100 µM; in test [4] it was 31.2 µM; in [5], 36.4 µM; in test [6], 28.6 µM. Also, the GI50 in [7] was 45.8 µM; in test [8] it was 20.9 µM; in test [9] it was 37.9 µM; in [10], 59.5 µM. Besides, the TGI in [1] is more than 100 µM; in test [2], more than 100 µM; in [3], more than 100 µM; in test [4], 90.8 µM; in test [5], more than 100 µM; in test [6], more than 100 µM. Also, the TGI was more than 100 µM in test [7], 53.4 µM in test [8], more than 100 µM in test [9] and more than 100 µM in test [10].
Turning to `COC(=O)COc1ccc(/C=C2\N=C(c3ccccc3)N(c3cc(C(F)(F)F)ccc3Cl)C2=O)cc1`, the GI50 in test [1] is more than 100 µM; in [2], 27.3 µM; in [3], 75.9 µM; in test [4] it was 97.1 µM; in [5], 26.1 µM; in [6], 44.8 µM. Further, the GI50 in test [7] is 36 µM; in test [8], 83.5 µM; in [9] it was more than 100 µM; in [10] it was 76.6 µM. Besides, the TGI is more than 100 µM in [1]; 63.4 µM in test [2]; more than 100 µM in [3]; more than 100 µM in test [4]; 96.8 µM in test [5]; more than 100 µM in [6]. Also, the TGI in test [7], in test [8], in [9] and in test [10] was more than 100 µM each time.

For the origin of these results see PubChem BioAssay (NCI).
